Experimental data from US20020183340A1, “4-(4'-HYDROXYPHENYL) AMINO-6,7-DIMETHOXYQUINAZOLINE TO PREVENT DEVELOPMENT OF COLORECTAL CANCER” (Parker Hughes Institute, priority 1999, published 2002).

System: APC^min mouse model
Test: APC^min mouse model of colorectal cancer development (chow supplemented with compound)
Assay type: in vivo, mice
Settings: for Probability Of Survival: APC^min mice fed chow with 0.3 wt % compound once a week from six weeks of age, n = 23
From the text: An APC^min mouse model was used to test the ability of 4-(4′-hydroxyphenyl)-amino-6,7-dimethoxyquinazoline to prevent the development of colorectal cancer. A total of 23 APC^min mice were fed rodent chow, which was supplemented with 0.3 wt % 4-(4′-hydroxyphenyl)-amino-6,7-dimethoxyquinazoline once a week starting at six weeks of age. A control group of 30 mice were fed rodent chow without 4-(4′-hydroxyphenyl)-amino-6,7-dimethoxyquinazoline. The health status of the mice was monitored for thirty weeks. Table 1 below describes the Probability of Survival for each group of mice over a period of 210 days.

Structure (SMILES): COc1cc2ncnc(Nc3ccc(O)cc3)c2cc1OC [4-(4′-hydroxyphenyl)-amino-6,7-dimethoxyquinazoline]
- Probability Of Survival (age 90 days): 100 ± 0
- Probability Of Survival (age 120 days): 94 ± 5
- Probability Of Survival (age 150 days): 81 ± 10
- Probability Of Survival (age 180 days): 68 ± 12
- Probability Of Survival (age 210 days): 68 ± 12
- mice still alive (by thirty weeks of age, mice fed compound (17% of the control mice)): 68%
